Assay: Dissociation constant, pKa of compound by capillary electrophoresis
Format: physicochemical

Row | Compound | pKa
1 | CC#C[C@@]1(c2cc(NC(=O)c3ccc(C#N)cn3)ccc2F)CCOC(N)=N1 | 8.3
2 | CC#C[C@]1(c2cc(NC(=O)c3cnc(OCF)cn3)ccc2F)N=C(N)OCC12CC(F)(F)C2 | 7.5
3 | CC#C[C@]1(c2cc(NC(=O)c3cnc(OCF)cn3)ccc2F)N=C(N)OC[C@@H]1F | 6.5
4 | CC#C[C@@]1(c2cc(NC(=O)c3cnc(OCF)cn3)ccc2F)CCOC(N)=N1 | 8.4
